In patent US11117883B2 (Ariad Pharmaceuticals, Inc., priority 2016, dated 2021):

How the values were obtained:
Assay in all cases: c-Kit assay: Ba/F3 KIT mutant viability (Cell Titer-Glo, 72 hours)
Assay type in all cases: cell-based
[1] = target: T1, BAF3 FL KIT EX11DEL/D816H (Homo sapiens, UniProt P10721, D816H, cells depend on it, form not given); details: viability after 72 hours
T1 construct: "BAF3 FL KIT EX11DEL/ D816H"
Procedure: (§1) KIT cDNAs were synthesized by GenScript and cloned into the pLVX-IRES-Puro vector (Clontech). Viral particles were produced by transfecting pLVX-IRES-puro vectors containing KIT mutant genes into HEK293 cells (Invitrogen) using the Trans-Lentiviral ORF Packaging Kit (Thermo Scientific). 48 hours post-transfection, virus-containing supernatants were harvested and incubated for another 48-72 hours with parental Ba/F3 cells (DSMZ) in the presence of 10 ng/mL […] (R&D Systems). Transduced Ba/F3 cells were then selected by IL-3 withdrawal and puromycin (0.5-1 μg/mL, Invitrogen).
(§2) Cell lines (i.e., EX11DEL, EX11DEL/D816H, EX11DEL/T670I, and EX11DEL/V654A) were plated into 384 well plates using RPMI 1640 supplemented with 10% FBS at densities that produced linear growth and incubated at 37° C. in 5% (v/v) CO2. Cells were treated with eight concentrations of compound over a 4-fold dilution (10 μM to 0.61 nM) and viability was assessed using Cell Titer-Glo assay (Promega) after 72 hours. Data were plotted as percent viability relative to vehicle-treated cells. Dose-responses curves were generated and used to calculate IC50 values.

[2] = target: T2, BAF3 FL KIT EX11DEL (Homo sapiens, UniProt P10721, cells depend on it, form not given); details: viability after 72 hours
T2 construct: "BAF3 FL KIT EX11DEL"
Procedure: as §1, §2

[3] = target: T3, BAF3 FL KIT EX11DEL/V654A (Homo sapiens, UniProt P10721, V654A, cells depend on it, form not given); details: viability after 72 hours
T3 construct: "BAF3 FL KIT EX11DEL/ V654A"
Procedure: as §1, §2

[4] = target: T4, BAF3 FL KIT EX11DEL/T6701 (Homo sapiens, UniProt P10721, T670I, cells depend on it, form not given); details: EX11DEL/T6701, viability after 72 hours
T4 construct: "BAF3 FL KIT EX11DEL/ T6701"
Procedure: as §1, §2

T2 sequence (P10721 with tags, fused parts or gaps DEL557-558): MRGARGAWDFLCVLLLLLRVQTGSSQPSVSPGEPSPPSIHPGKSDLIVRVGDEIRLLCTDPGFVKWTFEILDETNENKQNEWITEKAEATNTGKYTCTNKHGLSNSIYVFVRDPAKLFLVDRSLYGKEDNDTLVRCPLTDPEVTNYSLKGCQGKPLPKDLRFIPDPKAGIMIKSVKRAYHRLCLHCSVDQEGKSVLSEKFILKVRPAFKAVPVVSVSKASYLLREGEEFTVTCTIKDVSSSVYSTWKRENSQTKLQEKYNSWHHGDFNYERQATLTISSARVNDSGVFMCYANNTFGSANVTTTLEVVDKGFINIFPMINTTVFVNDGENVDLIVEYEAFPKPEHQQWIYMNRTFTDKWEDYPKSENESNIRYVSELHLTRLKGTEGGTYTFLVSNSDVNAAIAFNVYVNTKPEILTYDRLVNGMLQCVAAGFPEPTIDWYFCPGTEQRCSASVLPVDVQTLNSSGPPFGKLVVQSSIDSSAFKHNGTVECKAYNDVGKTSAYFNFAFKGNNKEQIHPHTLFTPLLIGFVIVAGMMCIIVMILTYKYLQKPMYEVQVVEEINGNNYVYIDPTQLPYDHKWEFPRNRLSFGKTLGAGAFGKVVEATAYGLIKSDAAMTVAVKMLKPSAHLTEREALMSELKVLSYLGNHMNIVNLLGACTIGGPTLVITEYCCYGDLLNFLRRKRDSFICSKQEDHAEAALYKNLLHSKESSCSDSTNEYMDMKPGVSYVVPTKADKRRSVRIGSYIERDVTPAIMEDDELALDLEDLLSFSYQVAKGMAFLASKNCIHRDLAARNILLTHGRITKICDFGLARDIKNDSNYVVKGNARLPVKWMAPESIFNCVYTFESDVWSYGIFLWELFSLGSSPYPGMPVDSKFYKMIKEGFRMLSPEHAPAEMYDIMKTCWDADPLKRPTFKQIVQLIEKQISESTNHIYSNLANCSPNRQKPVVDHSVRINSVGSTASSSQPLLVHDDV
T4 sequence (P10721 with tags, fused parts or gaps DEL557-558/T670I, form open): as the sequence (P10721 with tags, fused parts or gaps DEL557-558) above, with T668I counted along it
T1 sequence (P10721 with tags, fused parts or gaps DEL557-558/D816H, form open): as the sequence (P10721 with tags, fused parts or gaps DEL557-558) above, with D814H counted along it
T3 sequence (P10721 with tags, fused parts or gaps DEL557-558/V654A, form open): as the sequence (P10721 with tags, fused parts or gaps DEL557-558) above, with V652A counted along it

Row | Compound | GI50 [1] | GI50 [2] | GI50 [3] | GI50 [4]
1 | Cc1ccc(C(=O)Nc2cc(C(F)(F)F)ccn2)cc1C#Cc1ccc2c(c1)ncn2-c1cnn(C2CCN(C=O)CC2)c1 [Compound I-25, 3-((1-(1-(1-formylpiperidin-4-yl)-1H-pyrazol-4-yl)-1H-benzo[d]imidazol-5-yl)ethynyl)-4-methyl-N-(4-(trifluoromethyl)pyridin-2-yl)benzamide] | 10 to 50 nM | < 10 nM | 10 to 50 nM | < 10 nM
2 | Cc1ccc(C(=O)Nc2cc(C(F)(F)F)ccn2)cc1C#Cc1ccc2c(c1)ncn2-c1cnn(C2CCNCC2)c1 [Compound I-26, 4-methyl-3-((1-(1-(piperidin-4-yl)-1H-pyrazol-4-yl)-1H-benzo[d]imidazol-5-yl)ethynyl)-N-(4-(trifluoromethyl)pyridin-2-yl)benzamide] | 10 to 50 nM | < 10 nM | 10 to 50 nM | 10 to 50 nM
3 | Cc1ccc(C(=O)Nc2cc(C(F)(F)F)ccn2)cc1C#Cc1ccc2c(c1)ncn2-c1cnn(C2CCN(C)CC2)c1 [Compound I-27, 4-methyl-3-((1-(1-(1-methylpiperidin-4-yl)-1H-pyrazol-4-yl)-1H-benzo[d]imidazol-5-yl)ethynyl)-N-(4-(trifluoromethyl)pyridin-2-yl)benzamide] | 10 to 50 nM | < 10 nM | 10 to 50 nM | 10 to 50 nM
4 | Cc1ccc(C(=O)Nc2cccc(C3CC3)c2)cc1C#Cc1ccc2c(c1)ncn2-c1cnn(C)c1 [Compound I-28, N-(3-cyclopropylphenyl)-4-methyl-3-((1-(1-methyl-1H-pyrazol-4-yl)-1H-benzo[d]imidazol-5-yl)ethynyl)benzamide] | 50 to 100 nM | 10 to 50 nM | 50 to 100 nM | 10 to 50 nM
5 | Cc1ccc(C(=O)Nc2ccc(CN3CCCC3)c(C(F)(F)F)c2)cc1C#Cc1ccc2c(c1)ncn2-c1cnn(C)c1 [Compound I-29, 4-methyl-3-((1-(1-methyl-1H-pyrazol-4-yl)-1H-benzo[d]imidazol-5-yl)ethynyl)-N-(4-(pyrrolidin-1-ylmethyl)-3-(trifluoromethyl)phenyl)benzamide] | 10 to 50 nM | 10 to 50 nM | 50 to 100 nM | 10 to 50 nM
6 | Cc1ccc(C(=O)Nc2ccc(CN3CCCC3)c(C(F)(F)F)c2)cc1C#Cc1ccc2c(c1)ncn2C [Compound I-30, 4-methyl-3-((1-methyl-1H-benzo[d]imidazol-5-yl)ethynyl)-N-(4-(pyrrolidin-1-ylmethyl)-3-(trifluoromethyl)phenyl)benzamide] | 100 to 10000 nM | 10 to 50 nM | 50 to 100 nM | 50 to 100 nM
7 | Cc1ccc(C(=O)Nc2cc(C(F)(F)F)ccn2)cc1C#Cc1ccc2c(c1)ncn2-c1cnn(CCO)c1 [Compound I-31, 3-((1-(1-(2-hydroxyethyl)-1H-pyrazol-4-yl)-1H-benzo[d]imidazol-5-yl)ethynyl)-4-methyl-N-(4-(trifluoromethyl)pyridin-2-yl)benzamide] | 10 to 50 nM | < 10 nM | 10 to 50 nM | < 10 nM
8 | COCCn1cc(-n2cnc3cc(C#Cc4cc(C(=O)Nc5cc(C(F)(F)F)ccn5)ccc4C)ccc32)cn1 [Compound I-32, 3-((1-(1-(2-methoxyethyl)-1H-pyrazol-4-yl)-1H-benzo[d]imidazol-5-yl)ethynyl)-4-methyl-N-(4-(trifluoromethyl)pyridin-2-yl)benzamide] | 10 to 50 nM | < 10 nM | 10 to 50 nM | < 10 nM
9 | Cc1ccc(C(=O)Nc2cc(C(F)(F)F)ccn2)cc1C#Cc1ccc2c(c1)ncn2-c1cnn(C2CCOCC2)c1 [Compound I-33, 4-methyl-3-((1-(1-(tetrahydro-2H-pyran-4-yl)-1H-pyrazol-4-yl)-1H-benzo[d]imidazol-5-yl)ethynyl)-N-(4-(trifluoromethyl)pyridin-2-yl)benzamide] | 10 to 50 nM | < 10 nM | 10 to 50 nM | < 10 nM
10 | Cc1ccc(C(=O)Nc2cc(C(F)(F)F)ccn2)cc1C#Cc1ccc2c(c1)ncn2-c1cn(C2CCN(C)CC2)cn1 [Compound I-34, 4-methyl-3-((1-(1-(1-methylpiperidin-4-yl)-1H-imidazol-4-yl)-1H-benzo[d]imidazol-5-yl)ethynyl)-N-(4-(trifluoromethyl)pyridin-2-yl)benzamide] | 100 to 10000 nM | < 10 nM | 100 to 10000 nM | 10 to 50 nM
11 | Cc1ccc(C(=O)Nc2cc(C(F)(F)F)ccn2)cc1C#Cc1ccc2c(c1)ncn2-c1cn[nH]c1 [Compound I-35, 3-((1-(1H-pyrazol-4-yl)-1H-benzo[d]imidazol-5-yl)ethynyl)-4-methyl-N-(4-(trifluoromethyl)pyridin-2-yl)benzamide] | 10 to 50 nM | < 10 nM | 10 to 50 nM | 10 to 50 nM
12 | Cc1ccc(NC(=O)c2cc(C(F)(F)F)ccn2)cc1C#Cc1ccc2c(c1)ncn2-c1cn(C)nn1 [Compound I-36, N-(4-methyl-3-((1-(1-methyl-1H-1,2,3-triazol-4-yl)-1H-benzo[d]imidazol-5-yl)ethynyl)phenyl)-4-(trifluoromethyl)picolinamide] | 10 to 50 nM | < 10 nM | 10 to 50 nM | 10 to 50 nM
13 | Cc1ccc(C(=O)Nc2ccc(C#N)c(C(F)(F)F)c2)cc1C#Cc1ccc2c(c1)ncn2-c1ccn(C)n1 [Compound I-37, N-(4-cyano-3-(trifluoromethyl)phenyl)-4-methyl-3-((1-(1-methyl-1H-pyrazol-3-yl)-1H-benzo[d]imidazol-5-yl)ethynyl)benzamide] | 10 to 50 nM | < 10 nM | 50 to 100 nM | 10 to 50 nM
14 | COCCn1cc(-n2cnc3cc(C#Cc4cc(NC(=O)c5cc(C(F)(F)F)ccn5)ccc4C)ccc32)cn1 [Compound I-38, N-(3-((1-(1-(2-methoxyethyl)-1H-pyrazol-4-yl)-1H-benzo[d]imidazol-5-yl)ethynyl)-4-methylphenyl)-4-(trifluoromethyl)picolinamide] | 50 to 100 nM | < 10 nM | 10 to 50 nM | 10 to 50 nM
15 | Cc1ccc(NC(=O)c2cc(C(F)(F)F)ccn2)cc1C#Cc1ccc2c(c1)ncn2-c1cnn(CCO)c1 [Compound I-39, N-(3-((1-(1-(2-hydroxyethyl)-1H-pyrazol-4-yl)-1H-benzo[d]imidazol-5-yl)ethynyl)-4-methylphenyl)-4-(trifluoromethyl)picolinamide] | 10 to 50 nM | < 10 nM | 10 to 50 nM | < 10 nM
16 | Cc1ccc(NC(=O)c2cc(C(F)(F)F)ccn2)cc1C#Cc1ccc2c(c1)ncn2-c1cnn(C2CCN(C)CC2)c1 [Compound I-40] | 100 to 10000 nM | < 10 nM | 100 to 10000 nM | 10 to 50 nM
17 | Cc1ccc(NC(=O)c2cc(C(F)(F)F)ccn2)cc1C#Cc1ccc2c(c1)ncn2-c1cnn(CCN(C)C)c1 [Compound I-41, N-(3-((1-(1-(2-(dimethylamino)ethyl)-1H-pyrazol-4-yl)-1H-benzo[d]imidazol-5-yl)ethynyl)-4-methylphenyl)-4-(trifluoromethyl)picolinamide] | 100 to 10000 nM | < 10 nM | 50 to 100 nM | 10 to 50 nM
18 | CCN(CC)CCn1cc(-n2cnc3cc(C#Cc4cc(NC(=O)c5cc(C(F)(F)F)ccn5)ccc4C)ccc32)cn1 [Compound I-42, N-(3-((1-(1-(2-(diethylamino)ethyl)-1H-pyrazol-4-yl)-1H-benzo[d]imidazol-5-yl)ethynyl)-4-methylphenyl)-4-(trifluoromethyl)picolinamide] | 100 to 10000 nM | 10 to 50 nM | 50 to 100 nM | 10 to 50 nM
19 | Cc1ccc(NC(=O)c2cc(C(F)(F)F)ccn2)cc1C#Cc1ccc2c(c1)ncn2-c1cn[nH]c1 [Compound I-43, N-(3-((1-(1H-pyrazol-4-yl)-1H-benzo[d]imidazol-5-yl)ethynyl)-4-methylphenyl)-4-(trifluoromethyl)picolinamide] | 50 to 100 nM | < 10 nM | 100 to 10000 nM | 50 to 100 nM
20 | Cc1ccc(NC(=O)c2cc(C(F)(F)F)ccn2)cc1C#Cc1ccc2c(c1)ncn2-c1cnn(C)c1 [Compound I-44, N-(4-methyl-3-((1-(1-methyl-1H-pyrazol-4-yl)-1H-benzo[d]imidazol-5-yl)ethynyl)phenyl)-4-(trifluoromethyl)picolinamide] | 10 to 50 nM | < 10 nM | 10 to 50 nM | 10 to 50 nM
21 | Cc1ccc(NC(=O)c2cc(C(F)(F)F)ccn2)cc1C#Cc1ccc2c(c1)ncn2C [Compound I-45, N-(4-methyl-3-((1-methyl-1H-benzo[d]imidazol-5-yl)ethynyl)phenyl)-4-(trifluoromethyl)picolinamide] | 50 to 100 nM | 10 to 50 nM | 50 to 100 nM | 10 to 50 nM
